“Also recorded” adds a separate entry of the source.
What was measured:
C57BL/6NCrl mice [1] = assay: In vivo cytotoxicity assay of Ova-CD8+ T cells; settings: for In vivo cytotoxicity of Ova-CD8+ T cells, comparison with AddaVax-Ova (ANOVA, Tukey): 10 μg Ova and 1 mg SLA, target cells injected day 27, read day 28; for Change in cytotoxic killing on reducing SLA dose: 1.0 mg reduced to 0.3 mg SLA; for CD8+ T cell cytotoxicity at lower Ova antigen or SLA adjuvant dose: lower dose (1 μg Ova or 0.3 mg SLA) versus optimal dose
Source text: (§1) C57BL/6NCrl mice (6-8 weeks) were obtained from Charles River Laboratories (Saint-Constant, QC, Canada). Mice were maintained in individually ventilated cages with five female mice to a cage with easy access to food and water in a specific pathogen-free small animal facility with automatically controlled light/dark cycles, humidity and temperature at the National Research Council of Canada (NRC) in accordance with the guidelines of the Canadian Council on Animal Care. The animal use protocol (2016.08) was approved by the NRC Animal Care Committee. All mice were randomized upon entering the facility and were immunized and had samples collected and tested in a blinded method.
(§2) C57BL/6NCrl mice were immunized by i.m. injection (50 μL) into the left tibialis anterior muscle. All mice were immunized twice in a prime/boost regime on day 0 and day 21. Blood samples were taken for sera collection before boost on day 20 as well as on day 28 immediately prior to euthanasia where whole spleens were collected in necropsy.
(§3) SLA archaeosomes were prepared as described previously.^12 Briefly, SLA lipids (SLA-1, SLA-2 or SLA-3) were dissolved in chloroform/methanol and aliquoted to a glass vial; the organic solvent was removed under N2 gas with mild heating to form a thin lipid layer. A vacuum was applied for at least 2 h to ensure total removal of trace solvents. The lipid film was then hydrated with 1.0 mL of Milli-Q water and was shaken for 2 h at 40° C. or until hydration was completed. Archaeosome vesicles were reduced in size using a tabletop ultrasonic water bath (Fisher Scientific FS60H, 130 W and operating frequency of 40 kHz) and high pressure; they were then left to anneal at 4° C. for 12 h in static conditions and finally filter-sterilized through 0.22 μm filter units. The Ova protein solution (type VI, Sigma-Aldrich, Oakville, ON, Canada) was then added to the empty archaeosomes at the desired amount immediately before immunization so that a single dose contained 1 mg or 0.3 mg of SLA and 10 μg or 1 μg of antigen. The commercial adjuvant AddaVax™ (squalene-oil-in-water emulsion, Invivogen, San Diego, CA, USA) was prepared according to manufacturer's recommendations and mixed with 10 μg Ova protein at 1:1, v:v. The TLR4 agonist monophosphoryl Lipid A (MPLA from S. Minnesota R595 VacciGrade, InvivoGen, San Diego, CA, USA) was combined with Alum (Alhydrogel™ “85”, aluminum hydroxide, Brenntag Biosector, Frederikssund, Denmark), 10 μg: 40 μg respectively and 1 μg Ova. All solutions were brought to a physiological pH of 7.4 in phosphate-buffered saline (PBS).
The activity of antigen-specific CD8^+ T cells (CTL) was measured in vivo as previously described.^10 Briefly, donor spleen-cell suspensions from naïve C57BL/6NCrl mice were prepared. Cells were split into two aliquots. One aliquot was incubated at 37° C. with […] SIINFEKL (JPT Peptide Technologies GmbH) in RIO complete medium (RPMI 1640 with 10% heat-inactivated fetal bovine serum, 1% penicillin/streptomycin, 1% glutamine and 55 μM 2-mercaptoethanol) (Thermo Fisher Scientific, Waltham, MA, USA). After 30 min of incubation, the peptide-pulsed aliquot was stained with a high 10× concentration of CFSE (2.5 μM; Thermo Fisher Scientific); the second non-peptide-pulsed aliquot was stained with 1×CFSE ([…]). Two aliquots of cells (10×10^6/each) were mixed 1:1 and injected into previously immunized recipient mice. Mice injected with Ova alone dissolved in PBS served as controls. At ˜20 to 22 h after the donor cell transfer, spleens were removed from recipients, single-cell suspensions prepared, and cells analyzed by flow cytometry on a BD Fortessa flow cytometer (Becton Dickinson, Franklin Lakes, NJ, USA). The in vivo percentage of peptide pulsed targets relative to non-peptide pulsed targets was enumerated according to a previously published equation.^21, 24-25
(§4) Data were analyzed using GraphPad Prism 9® (GraphPad Software, San Diego, CA, USA). […]

C57BL/6NCrl mice [2] = assay: Anti-Ova total IgG titres in serum of immunized mice (ELISA); format: in vivo; settings: day 28, two immunizations, 1 μg Ova and 1 mg SLA
Source text: as §1
C57BL/6NCrl mice were immunized by i.m. injection (50 μL) into the left tibialis anterior muscle. All mice were immunized twice in a prime/boost regime on day 0 and day 21. […]
Anti-Ova total IgG titers in mouse serum were quantified by ELISA as described previously.^11-12 Briefly, 96-well high-binding ELISA plates (Thermo Fisher Scientific, Waltham, MA, USA) were coated overnight with 10 μg/mL of the Ova protein used for immunization. […] No detectable titers were measured in serum samples from naïve control animals.
as §4

C57BL/6NCrl mice [3] = assay: Enumeration of IFN-γ secreting Ova-CD8+ T cells in spleen by ELISPOT; format: in vivo; settings: for Number of IFN γ-secreting Ova-CD8+ T cells, comparison with AddaVax-Ova (ANOVA, Tukey) / Number of IFN γ-secreting Ova-CD8+ T cells, comparison with MPL/alum-Ova (ANOVA, Tukey): 10 μg Ova and 1 mg SLA; for Change in ability to induce IFN-γ+ Ova-CD8+ T cells on reducing SLA dose: 1.0 mg reduced to 0.3 mg SLA; for Differences between SLA formulations to produce IFN-γ+ Ova-CD8+ T cells: at each dose tested
Source text: as §1, §2, §3
The Enumeration of IFN-γ secreting cells was done by use of an ELISPOT assay as previously described.^12 Briefly, spleen cells (at a final cell density of 4×10^5 cells/well) were added to 96-well ELISPOT plates coated with anti-IFN-γ (Mabtech Inc., Cincinnati, OH, USA), and incubated in the presence of a peptide stimulant (or non-stimulant control) for 20 h at 37° C., 5% CO2. Peptide stimulant consisted of SIINFEKL, an Ovalbumin CD8^+ T cell epitope Ova257-264. Plates were then incubated, washed and developed using AEC substrate (Becton Dickinson, Franklin Lakes, NJ, USA) and counted using an automated ELISPOT plate reader by BIOSYS (Miami, FL, USA).
Data were analyzed using GraphPad Prism 9® (GraphPad Software, San Diego, CA, USA). Antibody titers were log transformed prior to testing and shown as geometric mean titer (GMT) with the lower and upper 95% confidence interval shown in the graph and written in the text. All in vivo generated data were analyzed with the one-way analysis of variance (ANOVA) test followed by post-hoc analysis using Tukey's multiple comparisons test (comparisons among all groups), as indicated in the figure legends. For all analyses, differences were considered to be not significant with p>0.05.

Row | Compound | In vivo cytotoxicity of Ova-CD8+ T cells, comparison with AddaVax-Ova (ANOVA, Tukey) (C57BL/6NCrl mice [1]) | Change in cytotoxic killing on reducing SLA dose (C57BL/6NCrl mice [1]) | Adjuvant effectiveness relative to SLA-1 (cytotoxic killing) (C57BL/6NCrl mice [1]; FIG. 8) | CD8+ T cell cytotoxicity at lower Ova antigen or SLA adjuvant dose (C57BL/6NCrl mice [1]) | Anti-Ova IgG titres, comparison with MPL/alum (one-way ANOVA, Tukey) (C57BL/6NCrl mice [2]) | Number of IFN γ-secreting Ova-CD8+ T cells, comparison with AddaVax-Ova (ANOVA, Tukey) (C57BL/6NCrl mice [3]; day 28) | Number of IFN γ-secreting Ova-CD8+ T cells, comparison with MPL/alum-Ova (ANOVA, Tukey) (C57BL/6NCrl mice [3]; day 28) | Change in ability to induce IFN-γ+ Ova-CD8+ T cells on reducing SLA dose (C57BL/6NCrl mice [3]) | Adjuvant effectiveness relative to SLA-1 (IFN-γ ELISPOT) (C57BL/6NCrl mice [3]; FIG. 7) | Differences between SLA formulations to produce IFN-γ+ Ova-CD8+ T cells (C57BL/6NCrl mice [3]) | IFN-γ detectable spots (C57BL/6NCrl mice [3]; Ova antigen alone, unadjuvanted, day 28)
1 | CC(C)CCCC(C)CCCC(C)CCCC(C)CCOCC(CO[C@@H]1OC(CO)C(O[C@@H]2OC(COS(=O)(=O)O)C(O)[C@H](O)C2O)[C@H](O)C1O)OCCC(C)CCCC(C)CCCC(C)CCCC(C)C (mixture of isomers) [SLA-3] | SLA-3>AddaVax™-Ova | Lesser reductions | at least as effective as SLA-1 | lower CD8^+ T cell cytotoxicity | SLA-3>MPL/alum-Ova | SLA-3>AddaVax™-Ova | SLA-3>MPL/alum-Ova | Lesser reductions | at least as effective as SLA-1; also recorded: as effective an adjuvant as semi-synthetically produced SLA | no statistically significant differences | 
2 | Ova: Ova protein (type VI, Sigma-Aldrich), model antigen; unadjuvanted control group [reference compound] |  |  |  |  |  |  |  |  |  |  | less than three
3 | CC(C)CCCC(C)CCCC(C)CCCC(C)CCOC[C@@H](CO[C@@H]1O[C@H](CO)[C@@H](O[C@@H]2O[C@H](COS(=O)(=O)O)[C@H](O)[C@H](O)[C@H]2O)[C@H](O)[C@H]1O)OCCC(C)CCCC(C)CCCC(C)CCCC(C)C (stereo partly drawn) [SLA-1, 6′-sulfate-β-D-Galp-(1,4)-β-D-Glcp-(1,1)-archaeol, reference compound] | SLA-1>AddaVax™-Ova | significantly reduces |  | lower CD8^+ T cell cytotoxicity | SLA-1>MPL/alum-Ova | SLA-1>AddaVax™-Ova | SLA-1>MPL/alum-Ova | significantly reduces |  | no statistically significant differences | 

Source: patent publication US20250084116A1, “MIXTURE OF STEREOISOMERS OF A SULFATED GLYCOLIPID” (NATIONAL RESEARCH COUNCIL OF CANADA, priority 2022, published 2025)
